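Cultured in 96-well plates, cells were exposed to test compound for 48 hours across five concentrations. At the TGI there is no net growth.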
System: M14 melanoma
Test: growth of human tumour cells (NCI), 48 h

CC12CCC(C/C1=N\NC(N)=O)C2(C)C (configuration not stated) and COC(=O)C1=C(C)N2[C@H](C(=O)O)CS[C@@]2(C)[C@H](C(=O)OC)[C@H]1c1cccc([N+](=O)[O-])c1 cannot be ordered by TGI: over 100 µM for the first, over 100 µM for the second.

Work on COC(=O)C(CCCCNC(=O)CNC(=O)OCc1ccccc1)NC(=O)C(CCCCNC(=O)CNC(=O)OCc1ccccc1)NC(=O)OCc1ccccc1 (configuration not stated) yielded a TGI of over 100 µM.

System: MALME-3M melanoma
Test: growth of human tumour cells (NCI), 48 h

Compared with CCN(CC)C(=S)SS(=O)(=O)c1ccc(C)cc1, COC(=O)C1=C(C)N2[C@H](C(=O)O)CS[C@@]2(C)[C@H](C(=O)OC)[C@H]1c1cccc([N+](=O)[O-])c1 is higher in TGI: 41.9 µM for the first, over 100 µM for the second.

C[C@@H]1C(=O)CC2(O)[C@@]13C[C@@H](OC(=O)[C@@H]3O)[C@@H](C)[C@@]21COC1=O (some centres not stated) and CC12CCC(C/C1=N\NC(N)=O)C2(C)C (configuration not stated) cannot be ordered by TGI: over 100 µM for the first, over 100 µM for the second.

CCCCCC(C(O)C#N)C(O)(C(F)(F)F)C(F)(F)F (configuration not stated) and COC(=O)C(CCCCNC(=O)CNC(=O)OCc1ccccc1)NC(=O)C(CCCCNC(=O)CNC(=O)OCc1ccccc1)NC(=O)OCc1ccccc1 (configuration not stated) cannot be ordered by TGI: over 10 µM for the first, over 100 µM for the second.

System: MCF7 breast
Test: growth of human tumour cells (NCI), 48 h

C[C@@H]1C(=O)CC2(O)[C@@]13C[C@@H](OC(=O)[C@@H]3O)[C@@H](C)[C@@]21COC1=O (some centres not stated) and CC12CCC(C/C1=N\NC(N)=O)C2(C)C (configuration not stated) cannot be ordered by TGI: over 100 µM for the first, over 100 µM for the second.

CCCCCC(C(O)C#N)C(O)(C(F)(F)F)C(F)(F)F (configuration not stated) and CC/C=C\C/C=C\C/C=C\CCCCCCCC(=O)OC(COC(=O)CCCCCCCCCCCCCCCCC)COC1OC(CO)C(O)C(O)C1O (configuration not stated) cannot be ordered by TGI: over 10 µM for the first, over 25 µM for the second.

Going from COC(=O)C1=C(C)N2[C@H](C(=O)O)CS[C@@]2(C)[C@H](C(=O)OC)[C@H]1c1cccc([N+](=O)[O-])c1 to COC(=O)C(CCCCNC(=O)CNC(=O)OCc1ccccc1)NC(=O)C(CCCCNC(=O)CNC(=O)OCc1ccccc1)NC(=O)OCc1ccccc1 (configuration not stated), the TGI falls from over 100 µM to 19.1 µM.

System: MDA-MB-231 breast
Test: growth of human tumour cells (NCI), 48 h

CCN(CC)C(=S)SS(=O)(=O)c1ccc(C)cc1 and COc1ccc(/C(C)=N/NC(=S)N(C)C)c(O)c1 cannot be ordered by TGI: over 100 µM for the first, over 100 µM for the second.

C[C@@H]1C(=O)CC2(O)[C@@]13C[C@@H](OC(=O)[C@@H]3O)[C@@H](C)[C@@]21COC1=O (some centres not stated) and COC(=O)C1=C(C)N2[C@H](C(=O)O)CS[C@@]2(C)[C@H](C(=O)OC)[C@H]1c1cccc([N+](=O)[O-])c1 cannot be ordered by TGI: over 100 µM for the first, over 100 µM for the second.

CCCCCC(C(O)C#N)C(O)(C(F)(F)F)C(F)(F)F (configuration not stated) and CC/C=C\C/C=C\C/C=C\CCCCCCCC(=O)OC(COC(=O)CCCCCCCCCCCCCCCCC)COC1OC(CO)C(O)C(O)C1O (configuration not stated) cannot be ordered by TGI: over 10 µM for the first, over 25 µM for the second.

In the case of COC(=O)C(CCCCNC(=O)CNC(=O)OCc1ccccc1)NC(=O)C(CCCCNC(=O)CNC(=O)OCc1ccccc1)NC(=O)OCc1ccccc1 (configuration not stated), the TGI is reported as over 100 µM.

System: MDA-MB-435
Test: growth of human tumour cells (NCI), 48 h

CCN(CC)C(=S)SS(=O)(=O)c1ccc(C)cc1 and COc1ccc(/C(C)=N/NC(=S)N(C)C)c(O)c1 cannot be ordered by TGI: over 100 µM for the first, over 100 µM for the second.

C[C@@H]1C(=O)CC2(O)[C@@]13C[C@@H](OC(=O)[C@@H]3O)[C@@H](C)[C@@]21COC1=O (some centres not stated) and CC12CCC(C/C1=N\NC(N)=O)C2(C)C (configuration not stated) cannot be ordered by TGI: over 100 µM for the first, over 100 µM for the second.

CCCCCC(C(O)C#N)C(O)(C(F)(F)F)C(F)(F)F (configuration not stated) and CC/C=C\C/C=C\C/C=C\CCCCCCCC(=O)OC(COC(=O)CCCCCCCCCCCCCCCCC)COC1OC(CO)C(O)C(O)C1O (configuration not stated) cannot be ordered by TGI: over 10 µM for the first, over 25 µM for the second.

COC(=O)C1=C(C)N2[C@H](C(=O)O)CS[C@@]2(C)[C@H](C(=O)OC)[C@H]1c1cccc([N+](=O)[O-])c1 and COC(=O)C(CCCCNC(=O)CNC(=O)OCc1ccccc1)NC(=O)C(CCCCNC(=O)CNC(=O)OCc1ccccc1)NC(=O)OCc1ccccc1 (configuration not stated) cannot be ordered by TGI: over 100 µM for the first, over 100 µM for the second.

System: MDA-N
Test: growth of human tumour cells (NCI), 48 h

CCN(CC)C(=S)SS(=O)(=O)c1ccc(C)cc1 and COc1ccc(/C(C)=N/NC(=S)N(C)C)c(O)c1 cannot be ordered by TGI: over 100 µM for the first, over 100 µM for the second.

C[C@@H]1C(=O)CC2(O)[C@@]13C[C@@H](OC(=O)[C@@H]3O)[C@@H](C)[C@@]21COC1=O (some centres not stated) and CC12CCC(C/C1=N\NC(N)=O)C2(C)C (configuration not stated) cannot be ordered by TGI: over 100 µM for the first, over 100 µM for the second.

CCCCCC(C(O)C#N)C(O)(C(F)(F)F)C(F)(F)F (configuration not stated) and CC/C=C\C/C=C\C/C=C\CCCCCCCC(=O)OC(COC(=O)CCCCCCCCCCCCCCCCC)COC1OC(CO)C(O)C(O)C1O (configuration not stated) cannot be ordered by TGI: over 10 µM for the first, over 25 µM for the second.

COC(=O)C1=C(C)N2[C@H](C(=O)O)CS[C@@]2(C)[C@H](C(=O)OC)[C@H]1c1cccc([N+](=O)[O-])c1 and COC(=O)C(CCCCNC(=O)CNC(=O)OCc1ccccc1)NC(=O)C(CCCCNC(=O)CNC(=O)OCc1ccccc1)NC(=O)OCc1ccccc1 (configuration not stated) cannot be ordered by TGI: over 100 µM for the first, over 100 µM for the second.

System: MOLT-4 leukemia
Test: growth of human tumour cells (NCI), 48 h

C[C@@H]1C(=O)CC2(O)[C@@]13C[C@@H](OC(=O)[C@@H]3O)[C@@H](C)[C@@]21COC1=O (some centres not stated) and CC12CCC(C/C1=N\NC(N)=O)C2(C)C (configuration not stated) cannot be ordered by TGI: over 100 µM for the first, over 100 µM for the second.

COc1ccc(/C(C)=N/NC(=S)N(C)C)c(O)c1 and COC(=O)C1=C(C)N2[C@H](C(=O)O)CS[C@@]2(C)[C@H](C(=O)OC)[C@H]1c1cccc([N+](=O)[O-])c1 cannot be ordered by TGI: over 100 µM for the first, over 100 µM for the second.

CCCCCC(C(O)C#N)C(O)(C(F)(F)F)C(F)(F)F (configuration not stated) and CC/C=C\C/C=C\C/C=C\CCCCCCCC(=O)OC(COC(=O)CCCCCCCCCCCCCCCCC)COC1OC(CO)C(O)C(O)C1O (configuration not stated) cannot be ordered by TGI: over 10 µM for the first, over 25 µM for the second.

In the case of COC(=O)C(CCCCNC(=O)CNC(=O)OCc1ccccc1)NC(=O)C(CCCCNC(=O)CNC(=O)OCc1ccccc1)NC(=O)OCc1ccccc1 (configuration not stated), the TGI is reported as over 100 µM.

System: NCI-H226 lung
Test: growth of human tumour cells (NCI), 48 h

CCN(CC)C(=S)SS(=O)(=O)c1ccc(C)cc1 and COC(=O)C1=C(C)N2[C@H](C(=O)O)CS[C@@]2(C)[C@H](C(=O)OC)[C@H]1c1cccc([N+](=O)[O-])c1 cannot be ordered by TGI: over 100 µM for the first, over 100 µM for the second.

C[C@@H]1C(=O)CC2(O)[C@@]13C[C@@H](OC(=O)[C@@H]3O)[C@@H](C)[C@@]21COC1=O (some centres not stated) and CC12CCC(C/C1=N\NC(N)=O)C2(C)C (configuration not stated) cannot be ordered by TGI: over 100 µM for the first, over 100 µM for the second.

CC/C=C\C/C=C\C/C=C\CCCCCCCC(=O)OC(COC(=O)CCCCCCCCCCCCCCCCC)COC1OC(CO)C(O)C(O)C1O (configuration not stated) and COC(=O)C(CCCCNC(=O)CNC(=O)OCc1ccccc1)NC(=O)C(CCCCNC(=O)CNC(=O)OCc1ccccc1)NC(=O)OCc1ccccc1 (configuration not stated) cannot be ordered by TGI: over 25 µM for the first, over 100 µM for the second.

System: NCI-H23 lung
Test: growth of human tumour cells (NCI), 48 h

Compound CCN(CC)C(=S)SS(=O)(=O)c1ccc(C)cc1 has a TGI of over 100 µM.
